The test system of experiment [1] is Arabidopsis thaliana Col-0 ecotype seeds. As to the kind of experiment: Seed germination, Col-0 ecotype. It is filed as in vivo. On the procedure:
Take the compounds 0428 and 0224 of the present invention as examples. The seeds of Arabidopsis thaliana Col-0 ecotype and PYL receptor triple mutant (pyr1;pyl1;pyl4) were sterilized with NaClO and placed at 4° C. for 3 days of the vernalization, and then sown in ½ MS solid medium containing 1 μM (+)-ABA/0224 compound or 0.05% DMSO (control) or in ½ MS solid medium containing 2 μM (+)-ABA/compound 0428 of the present invention or 0.05% DMSO (control). Two lines of plant were sown simultaneously on each medium of 6 cm diameter, with 15-20 seeds sown for each line and 4 replicates for each compound. Culture medium was placed at 22° C. with long-day culture. The seeds germinated on a solid medium containing 1 μM (+)-ABA/0224 compound were photographed 6 days after sowing, and seeds germinated on solid medium containing 2 μM (+)-ABA/0428 compound were photographed 9 days after sowing.

Experiment [2] concerns soybean GmPYL6 + Arabidopsis AtHAB1. As to the kind of experiment: AlphaScreen assay: promotion of the interaction of soybean GmPYL6 with Arabidopsis HAB1. The experiment is classed as binding, soybean (GmPYL6); Arabidopsis thaliana (HAB1). Particulars: FIG. 13a; 6×His-SUMO-tagged soybean GmPYL6, Biotin-tagged Arabidopsis HAB1 (aa 172-511), 100 nM each; pH 7.4; 1.5 h room temperature. (In general: Alpha assays give light when donor and acceptor beads are brought close together.)
Procedure: After incubating for 1.5 hours at room temperature in the dark, it was placed into an Envision Plate Reader (available from Perkin Elmer) under the programmed AlphaScreen procedure for readings.

The test system of experiment [3] is wheat. As to the kind of experiment: Soil drought experiment, wheat. It is filed as in vivo. Conditions: 100 μM sprayed once every 3 days; 6 days of drought; FIG. 17. The procedure:
Soybean, cotton and wheat for leaf transpiration experiments were used simultaneously for soil drought experiments, each pot was filled with the same weight of soil to reduce experimental error. All the soybean plants were subjected to a long-day culture at 26° C. 14 days after sowing, watering was stopped and the plants with the consistent growth condition were selected for drought treatment. At the start of the drought, a solution containing 0.1% Tween-20 and 20 μM (+)-ABA/0224/0304 or 0.1% Tween-20 and 0.05% DMSO (control) was sprayed onto the leaf surface once with a spray amount of 4 ml solution/pot. Meanwhile, the position of the pot was changed and re-watered 6 days after the drought, and the photos were taken 1 day after re-watering. The drought experiment of cotton was similar to that of soybeans, watering was stopped 25 days after sowing, the plants with the consistent growth condition were selected for drought treatment. At the start of the drought, a solution containing 0.1% Tween-20 and 20 μM (+)-ABA/0224 or 0.1% Tween-20 and 0.05% DMSO (control) was sprayed onto the leaf surface once with a spray amount of 4 ml solution/pot, and then sprayed once every 3 days. Meanwhile, the position of the pot was changed and re-watered 6 days after the drought, and the photos were taken before re-watering and 1 day after re-watering. […]

Experiment [4] concerns wheat. As to the kind of experiment: Leaf transpiration experiment, wheat. The experiment is classed as in vivo. Conditions: 100 μM spray 18 days after sowing, one day after spraying; FIG. 16. The procedure:
ABA synthesis mutant aba2-1 was used in Arabidopsis leaf transpiration experiment. […] Therefore, this mutant is used to exclude the effect of endogenous ABA on the transpiration experiment. The plants were sprayed with a solution containing 0.05% tween-20 and corresponding concentrations of (+)-ABA/0224/0304/0706/0715/0428 or 0.05% Tween-20 and 0.05% DMSO (control) after three weeks of continuous watering with an amount of 1.2 ml/pot. Leaf transpiration experiments of soybeans were conducted at 26° C. with long-day lighting and soybeans were sprayed with a solution containing 0.1% tween-20 and 20 μM (+)-ABA/0224/0304 compound or 0.1% Tween-20 and 0.05% DMSO (control) 14 days after sowing with an amount of 4 ml/pot; the leaf transpiration experiments of cottons were sprayed with a solution containing 0.1% tween-20 and 20 μM (+)-ABA/0224 compound or 0.1% Tween-20 and 0.05% DMSO, respectively, 25 days after sowing with an amount of 4 ml/pot; the leaf transpiration experiments of wheats were sprayed with a solution containing 0.1% tween-20 and 100 μM (+)-ABA/0224 compound or 0.1% Tween-20 and 0.05% DMSO (control) 18 days after sowing with an amount of 6 ml/pot. […]
In this experiment, the temperature change of leaf surface was observed and recorded by an infrared camera, thus reflecting the strength of plant transpiration. […]

pEC50: −log10 of the molar value. “Also recorded” adds a separate entry of the source.

As usually defined, the pEC50 is −log10 of the EC50, conventionally taken in molar units. Take `CCCN1C(=O)OCc2cc(NS(=O)(=O)Cc3c(F)c(F)c(C)c(F)c3F)ccc21` [Compound 0428]: the “inhibition of seed germination of Col-0” value in experiment [1] (2 μM in 1/2 MS solid medium, 9 days after sowing, FIG. 15) is given as “can inhibit the seed germination of the Col-0; also recorded: could inhibit the seed germination of Col-0 ecotype”. Besides, the pEC50 in experiment [2] is 8.20.
Consider `CC1=CC(=O)CC(C)(C)[C@@]1(O)/C=C/C(C)=C\C(=O)O` [ABA, Abscisic Acid, reference compound], for which the growth after drought entry in the experiment on wheat [3] is reported as “significantly better than that in the control group (DMSO); also recorded: remained upright”. Further, the negative logarithm of the EC50 (pEC50) in experiment [2] was 7.05. Moreover, in the experiment with wheat [4], the “leaf temperature versus DMSO control (leaf transpiration)” value is “still significant higher than that of plants in DMSO-sprayed control group”.
As to `CCCN1C(=O)OC(C)c2cc(NS(=O)(=O)Cc3c(F)c(F)c(C)c(F)c3F)ccc21` (centres unmarked) [Compound 0224], the growth after drought result with wheat [3] is “significantly better than that in the control group (DMSO); also recorded: remained upright”. Moreover, the “inhibition of seed germination of Col-0” value in experiment [1] (1 μM in 1/2 MS solid medium, 6 days after sowing, FIG. 3) is reported as “can inhibit the seed germination of Col-0; also recorded: could inhibit the seed germination of Col-0 ecotype”. In addition, the “leaf temperature versus DMSO control (leaf transpiration)” value with wheat [4] is given as “significantly reduce the transpiration rate of the wheat leaf; also recorded: still significant higher than that of plants in DMSO-sprayed control group”.

Values taken from patent publication US11076597B2, “High stress resistant plant growth regulator and preparation method and use thereof” (SHANGHAI INSTITUTES FOR BIOLOGICAL SCIENCES, CHINESE …, priority 2015, dated 2021).
